Calls of active or inactive are those of the source. The rule behind the calls is not given here.
What was measured:
Rattus norvegicus [1] = assay: Inhibition of testosterone propionate-induced castrated Wistar rat benign prostatic hyperplasia model assessed as decrease in pseudostratified epithelia at 10 mg/kg, iv by histochemistry; assay type: functional, organism-based; set-up: dose 10 mg/kg; conditions: Wister
Rattus norvegicus [2] = assay: Inhibition of testosterone propionate-induced castrated Wistar rat benign prostatic hyperplasia model assessed as prostate gland arrangement order at 10 mg/kg, iv by histochemistry; assay type: functional, organism-based; set-up: dose 10 mg/kg; conditions: Wister
Rattus norvegicus [3] = assay: Toxicity in testosterone propionate-induced castrated Wistar rat benign prostatic hyperplasia model assessed as body weight at 2 to 50 mg/kg, iv for 14 days; assay type: organism-based, Wister; set-up: dose 2-50 mg/kg, route intravenous; conditions: in vivo, 336 h
Rattus norvegicus [4] = assay: Inhibition of testosterone propionate-induced castrated Wistar rat benign prostatic hyperplasia model assessed as decrease in hyperplasia of interstitial tissues at 10 mg/kg, iv by histochemistry; assay type: functional, organism-based; set-up: dose 10 mg/kg; conditions: Wister
Rattus norvegicus [5] = assay: Inhibition of testosterone propionate-induced castrated Wistar rat benign prostatic hyperplasia model assessed as decrease in prostate weight at 10 mg/kg, iv for 14 days; assay type: functional, organism-based; set-up: dose 10 mg/kg; conditions: Wister, Prostate gland
Rattus norvegicus [6] = assay: Inhibition of testosterone propionate-induced castrated Wistar rat benign prostatic hyperplasia model assessed as decrease in seminal vesicles weight at 10 mg/kg, iv for 14 days; assay type: functional, organism-based; set-up: dose 10 mg/kg; conditions: Wister
[7] = target: T1, 3-oxo-5-alpha-steroid 4-dehydrogenase 2 (Rattus norvegicus, UniProt P31214); assay: Inhibition of rat 5-alpha-reductase type 2 by Lineweaver-Burk plot
T1 sequence (P31214 whole entry): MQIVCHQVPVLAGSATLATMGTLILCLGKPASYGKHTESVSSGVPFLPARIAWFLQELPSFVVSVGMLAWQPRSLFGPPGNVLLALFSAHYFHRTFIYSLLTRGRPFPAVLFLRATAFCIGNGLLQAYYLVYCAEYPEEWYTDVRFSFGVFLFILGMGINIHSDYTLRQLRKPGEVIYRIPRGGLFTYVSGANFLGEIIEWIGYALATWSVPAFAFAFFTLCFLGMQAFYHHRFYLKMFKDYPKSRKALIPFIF

Rattus norvegicus [8] = assay: Inhibition of testosterone propionate-induced castrated Wistar rat benign prostatic hyperplasia model assessed as decrease in epithelial protrusions at 10 mg/kg, iv by histochemistry; assay type: functional, organism-based; set-up: dose 10 mg/kg; conditions: Wister
Rattus norvegicus [9] = assay: Inhibition of testosterone propionate-induced castrated Wistar rat benign prostatic hyperplasia model assessed as decrease in prostate weight at 2 mg/kg, iv for 14 days; assay type: functional, organism-based; set-up: dose 2 mg/kg; conditions: Wister, Prostate gland
Rattus norvegicus [10] = assay: Inhibition of testosterone propionate-induced castrated Wistar rat benign prostatic hyperplasia model assessed as decrease in seminal vesicles weight at 50 mg/kg, iv for 14 days; assay type: functional, organism-based; set-up: dose 50 mg/kg; conditions: Wister
Rattus norvegicus [11] = assay: Toxicity in testosterone propionate-induced castrated Wistar rat benign prostatic hyperplasia model assessed as vital signs at 10 mg/kg, iv […]; assay type: organism-based, Wister; set-up: dose 10 mg/kg, route intravenous; conditions: in vivo
Rattus norvegicus [12] = assay: Inhibition of testosterone propionate-induced castrated Wistar rat benign prostatic hyperplasia model assessed as decrease in seminal vesicles weight at 2 mg/kg, iv for 14 days; assay type: functional, organism-based; set-up: dose 2 mg/kg; conditions: Wister
Rattus norvegicus [13] = assay: Inhibition of testosterone propionate-induced castrated Wistar rat benign prostatic hyperplasia model assessed as decrease in prostate weight at 50 mg/kg, iv for 14 days; assay type: functional, organism-based; set-up: dose 50 mg/kg; conditions: Wister, Prostate gland

With `CC(C)(C)NC(=O)[C@H]1CC[C@H]2[C@@H]3CC[C@H]4NC(=O)C=C[C@]4(C)[C@H]3CC[C@]12C` [FINASTERIDE] the inhibition (Rattus norvegicus [1]) was “Active”, the inhibition (Rattus norvegicus [2]) was “Active” and the Activity (Rattus norvegicus [3]) was “Non-toxic”. For the same compound, the inhibition (Rattus norvegicus [4]) was “Active”, the inhibition (Rattus norvegicus [5]) was “Active” and the inhibition (Rattus norvegicus [6]) was “Active”. The IC50 [7] was 147 nM and the inhibition (Rattus norvegicus [8]) was “Active”.
With `CC(C)(C)N(C(=O)C1CSCN1C(=O)C1CCC(=O)N1)C(=O)[C@H]1CC[C@H]2[C@@H]3CC[C@H]4NC(=O)C=C[C@]4(C)[C@H]3CC[C@]12C` (stereo partly specified) the inhibition (Rattus norvegicus [1]) was “Active”, the inhibition (Rattus norvegicus [2]) was “Active” and the inhibition (Rattus norvegicus [9]) was “Active”. For the same compound, the Activity (Rattus norvegicus [3]) was “Non-toxic”, the inhibition (Rattus norvegicus [10]) was “Active” and the inhibition (Rattus norvegicus [4]) was “Active”. The inhibition (Rattus norvegicus [5]) was “Active”, the inhibition (Rattus norvegicus [6]) was “Active” and the Activity (Rattus norvegicus [11]) was “Non-toxic”. For the same compound, the IC50 [7] was 88 nM, the inhibition (Rattus norvegicus [12]) was “Active” and the inhibition (Rattus norvegicus [8]) was “Active”. The inhibition (Rattus norvegicus [13]) was “Active”.
